Measured values published in patent US7300946B2, “N-(substituted arylmethyl)-4-(disubstituted methyl) piperidines and pyridines” (Bayer CropScience AG, priority 2002, dated 2007).

System: tobacco budworm (Heliothis virescens [Fabricius])
Test: surface-treated diet test against the tobacco budworm
Format: in vivo
Conditions: tobacco budworm second instar larvae, 0.25 millimoles of candidate insecticide on the surface of the diet, five-day exposure; for Percent Mortality: compared to total number of insects infested; for Percent Growth Inhibition: inhibition of insect weight relative to untreated controls
Summary of the method: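 Wheat germ artificial diet surface-treated with 40 µL of 50 mM DMSO stock diluted 1:7 in 1:1 water/acetone (0.25 millimolar on diet), or sub-multiples for rate tests. One second-instar larva per well, 25° C, 60% RH, 5 days; percent weight inhibition vs DMSO controls and percent mortality.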

O=C(Nc1cccc(Cl)c1)OC(c1ccc(C(F)(F)F)cc1)C1CCN(Cc2ccc(Oc3ccccn3)cc2)CC1 (stereo not drawn) [Compound 664]
Percent Mortality (surface-treated diet): 100% | Percent Growth Inhibition (surface-treated diet): 100%

Cc1cc(C)cc(NC(=O)OC(c2ccc(Cl)cc2)C2CCN(Cc3ccc(Oc4ccccn4)cc3)CC2)c1 (stereo not drawn) [Compound 632]
Percent Mortality (surface-treated diet): 100% | Percent Growth Inhibition (surface-treated diet): 100%

CNC(=O)Oc1ccc(C[N+]2([O-])CCC(=C(c3ccc(OC(F)(F)F)cc3)c3ccc(OC(F)(F)F)cc3)CC2)cc1 (stereo not drawn) [Compound 829]
Percent Mortality: 100% | Percent Growth Inhibition: 100%

CCn1nnc(-c2ccc(C[N+]3([O-])CCC(C(OC(=O)Nc4ccc(OC(F)(F)F)cc4)c4ccc(OC(F)(F)F)cc4)CC3)cc2)n1 (stereo not drawn) [Compound 405]
Percent Mortality (surface-treated diet): 100% | Percent Growth Inhibition (surface-treated diet): 100%

O=C(Nc1ccc(C(F)(F)F)cc1)OC(c1ccc(C(F)(F)F)cc1)C1CCN(Cc2ccc(Oc3ccccn3)cc2)CC1 (stereo not drawn) [Compound 245]
Percent Mortality (surface-treated diet): 100% | Percent Growth Inhibition (surface-treated diet): 100%

[O-][N+]1(Cc2ccc(Oc3ncccn3)cc2)CCC(=C(c2ccc(C(F)(F)F)cc2)c2cccc(C(F)(F)F)c2)CC1 (stereo not drawn) [Compound 853]
Percent Mortality: 100% | Percent Growth Inhibition: 100%

Cn1nnc(-c2ccc(CN3CCC(=C(c4ccc(C(F)(F)F)cc4)c4ccc(C(F)(F)F)cc4)CC3)cc2)n1 [Compound 75]
Percent Mortality (surface-treated diet): 100% | Percent Growth Inhibition (surface-treated diet): 96%

C=C(C)COC(=O)Nc1ccc(CN2CCC(=C(c3ccc(Cl)cc3)c3ccc(Cl)cc3)CC2)cc1 [Compound 800]
Percent Mortality: 0% | Percent Growth Inhibition: 86%

CCn1nnc(-c2ccc(CN3CCC(C(OC(=O)Nc4ccc(F)c(F)c4)c4cccc(F)c4)CC3)cc2)n1 (stereo not drawn) [Compound 584]
Percent Mortality (surface-treated diet): 100% | Percent Growth Inhibition (surface-treated diet): 100%

N#Cc1cccnc1Oc1ccc(CN2CCC(C(OC(=O)Nc3cc(F)cc(F)c3)c3ccc(OC(F)(F)F)cc3)CC2)cc1 (stereo not drawn) [Compound 710]
Percent Mortality: 100% | Percent Growth Inhibition: 100%

Fc1ccccc1Oc1ccc(CN2CCC(=C(c3ccc(C(F)(F)F)cc3)c3ccc(C(F)(F)F)cc3)CC2)cc1 [Compound 806]
Percent Mortality: 0% | Percent Growth Inhibition: 100%

O=C(Nc1ccc(Cl)cc1)OC(c1ccc(C(F)(F)F)cc1)C1CCN(Cc2ccc(Oc3nsnc3Cl)cc2)CC1 (stereo not drawn) [Compound 561]
Percent Mortality (surface-treated diet): 50% | Percent Growth Inhibition (surface-treated diet): 100%

CCON=Cc1ccc(CN2CCC(C(OC(=O)Nc3ccc(-c4ccccc4)cc3)c3ccc(C(F)(F)F)cc3)CC2)cc1 (stereo not drawn) [Compound 212]
Percent Mortality (surface-treated diet): 100% | Percent Growth Inhibition (surface-treated diet): 100%

FC(F)(F)c1ccc(C(=C2CCN(Cc3ccccc3)CC2)c2ccccc2)cc1 [Compound 30]
Percent Mortality (surface-treated diet): 100% | Percent Growth Inhibition (surface-treated diet): 54%

O=C(Nc1cc(F)cc(F)c1)OC(c1ccc(C(F)(F)F)cc1)C1CCN(Cc2ccc(-n3cncn3)cc2)CC1 (stereo not drawn) [Compound 558]
Percent Mortality (surface-treated diet): 17% | Percent Growth Inhibition (surface-treated diet): 99%

CCn1nnc(-c2ccc(CN3CCC(C(OC(=O)Nc4ccc(Oc5ccccc5)cc4)c4ccc(C(F)(F)F)cc4)CC3)cc2)n1 (stereo not drawn) [Compound 298]
Percent Mortality (surface-treated diet): 100% | Percent Growth Inhibition (surface-treated diet): 100%

O=C(Nc1ccc(F)c(F)c1)OC(c1ccc(OC(F)(F)F)cc1)C1CCN(Cc2ccc(Oc3ccccn3)cc2)CC1 (stereo not drawn) [Compound 238]
Percent Mortality (surface-treated diet): 100% | Percent Growth Inhibition (surface-treated diet): 100%

[O-][N+]1(Cc2ccc(OCC3CC3)cc2)CCC(=C(c2ccc(C(F)(F)F)cc2)c2ccc(C(F)(F)F)cc2)CC1 (stereo not drawn) [Compound 98]
Percent Mortality (surface-treated diet): 100% | Percent Growth Inhibition (surface-treated diet): 100%

O=C(Nc1ccc(F)c(F)c1)OC(c1ccc(C(F)(F)F)cc1)C1CCN(Cc2ccc(Oc3ncccn3)cc2)CC1 (stereo not drawn) [Compound 732]
Percent Mortality: 100% | Percent Growth Inhibition: 100%

O=C(Nc1cc(F)cc(F)c1)OC(c1ccc(C(F)(F)F)cc1)C1CCN(Cc2ccc(Oc3ncccn3)cc2)CC1 (stereo not drawn) [Compound 731]
Percent Mortality: 100% | Percent Growth Inhibition: 100%

O=C(Nc1cccc(F)c1)OC(c1ccc(F)cc1)C1CCN(Cc2ccc(Oc3ncccn3)cc2)CC1 (stereo not drawn) [Compound 716]
Percent Mortality: 100% | Percent Growth Inhibition: 100%

Cn1nnc(-c2ccc(CN3CCC(C(NC(=O)Nc4cccc(Cl)c4)c4ccc(OC(F)(F)F)cc4)CC3)cc2)n1 (stereo not drawn) [Compound 335]
Percent Mortality (surface-treated diet): 100% | Percent Growth Inhibition (surface-treated diet): 100%

N#Cc1cccnc1Oc1ccc(CN2CCC(C(OC(=O)Nc3ccc(Cl)cc3)c3ccc(C(F)(F)F)cc3)CC2)cc1 (stereo not drawn) [Compound 670]
Percent Mortality (surface-treated diet): 100% | Percent Growth Inhibition (surface-treated diet): 100%

COc1nc(OC)nc(Oc2ccc(CN3CCC(C(OC(=O)Nc4cc(F)cc(F)c4)c4ccc(C(F)(F)F)cc4)CC3)cc2)n1 (stereo not drawn) [Compound 740]
Percent Mortality: 100% | Percent Growth Inhibition: 100%
